Values of other authors as cited in patent publication US20050187172A1, “Combination of a Cox-2 inhibitor and a DNA topoisomerase I inhibitor for treatment of neoplasia” (priority 2003, published 2005).
Counter-ions that a name gives are not always drawn. Like-named read-outs stand apart in the source and are kept apart here.

How the values were obtained:
[1] = for Toxicity (reported toxic effects): Table 3, Toxicity column
[2] = not given; remark: listed apart in the source
[3] = mice, single IV infusion
[4] = Grade 2 or higher toxic effects
[5] = dose limiting hematological toxicity

In the case of `CN(C)CCNC(=O)c1cccc2cc3ccccc3nc12.Cl.Cl` [XR-5000, 4-Acridinecarboxamide, N-[2-(dimethylamino)ethyl]-, dihydrochloride], the “Toxicity (reported toxic effects)” value [1] is given as “infusion-related arm pain”.
In the case of `CC[C@@]1(O)C(=O)OCc2c1cc1n(c2=O)Cc2cc3c([N+](=O)[O-])cccc3nc2-1` [rubitecan, 1H-Pyrano[3′,4′:6,7]indolizino[1,2-b]quinoline-3,14(4H,12H)-dione, -4-ethyl-4-hydroxy-10-nitro-, (S)-], the chemical cystitis [4] is listed as “cystitis (25%),”, the diarrhea [4] is listed as “diarrhea (32%), chemical” and the neutropenic sepsis [4] is listed as “(21%), and weight loss”. The weight loss [4] was “(18%)”, the “grade 4 anemia, share of patients” value [5] was “grade 4 anemia in 29%” and the “thrombocytopenia (grade 4), share of patients” value [5] was 18%. Grade 2 or higher. The Maximum tolerated dose ([1]; over five consecutive days repeated every week) was “dose: 1.5 mg/m2/day”.
In the case of `O=C1c2c(c3c4ccc(O)cc4n([C@@H]4O[C@H](CO)[C@@H](O)[C@H](O)[C@H]4O)c3c3[nH]c4cc(O)ccc4c23)C(=O)N1NC(CO)CO` [J 107088, 5H-Indolo[2,3-a]pyrrolo[3,4-c]carbazole-5,7(6H)-dione, 12-β-D-glucopyranosyl-12,13-dihydro-2,10-dihydroxy-6-[[2-hydroxy-1-(hydroxymethyl)ethyl]amino]-], the Maximum tolerated dose ([1]; in vivo) is listed as “dose: 7.5 mg/m2”.
In the case of `CC[C@@]1(O)C(=O)OCc2c1cc1n(c2=O)Cc2cc3c(CN(C)C)c(O)ccc3nc2-1` [Topotecan, 1H-Pyrano[3′,4′:6,7]indolizino[1,2-b]quinoline-3,14(4,H,12H)-dione, 10-[(dimethylamino)methyl]-4-ethyl-4,9-dihydroxy-, (S)-], the “Dose limiting toxicity (DLT)” value ([1]; in vivo) is given as “Myelosup-pression dose-” and the Maximally tolerated dose ([1]; × 5 d every 3 to 4 wk) is given as “dose: 1.5 mg/m^2 × 5 d”.
In the case of `CCc1c2c(nc3ccc(OC(=O)N4CCC(N5CCCCC5)CC4)cc13)-c1cc3c(c(=O)n1C2)COC(=O)[C@]3(O)CC` [Irinotecan], the “Toxicity (reported toxic effects)” value [1] is listed as “Diarrhea and myelosup-”.
In the case of `CCc1c2c(nc3ccc(OC(=O)N4CCC(N5CCCCC5)CC4)cc13)-c1cc3c(c(=O)n1C2)COC(=O)[C@]3(O)CC` [Irinotecan hydrochloride, (4S)-4,11-diethyl-4-hydroxy-9-((4-piperidinopiperidino)carbonyloxy)-1H-pyrano(3′,4′:6,7)indolizino(1,2-b)quinoline-3,14(4H,12H)dione hydrochloride.], the Lethality in mice [2] is listed as “Lethality in mice: 111 mg/kg”.
For `CC[C@@]1(O)C(=O)OCc2c1cc1n(c2=O)Cc2cc3c(CN(C)C)c(O)ccc3nc2-1` [Topotecan hydrochloride, (S)-10-((dimethylamino)methyl)-4-ethyl-4,9-dihydroxy-1H-pyrano (3′,4′:6,7)indolizino(1,2-B)quinoline-3,14-(4H,12H)-dione monohydrochloride], the LD10 [3] is listed as “pression. LD10: mice 75 mg/m^2” and the “Dose limiting toxicity (DLT)” value ([1]; in vivo) is listed as “DLT: Bone marrow sup-”.
For `CC[C@@]1(O)C(=O)OCc2c1cc1n(c2=O)Cc2cc3c(N)cccc3nc2-1` [9-aminocamptothecin, 1H-Pyrano[3′,4′:6,7]indolizino[1,2-b]quinoline-3,14(4H,12H)-dione, 10-amino-4-ethyl-4-hydroxy-, (S)-], the “Dose limiting toxicity (DLT)” value ([1]; in vivo) is listed as “neutropenia” and the Maximum tolerated dose ([1]; in vivo) is listed as 45 mug/square mug/square metre/hr.
In the case of `CC[C@@]1(O)C(=O)OCc2c1cc1n(c2=O)Cc2c-1nc1cc3c(cc1c2CN1CCN(C)CC1)OCCO3` [GG211], the “Dose limiting toxicity (DLT)” value ([1]; in vivo) is listed as “Hematologic toxicity”.
